Results from PubChem BioAssay (NCI).
Where “and” joins values, the source holds several entries; their conditions need not be identical. Identical values can stand only once.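 Dose response: 5 concentrations. Exposure: 48 h. Format: 96-well plates. Endpoint: linear interpolation; highest concentration if not reached. GI50 marks 50% less growth. At the TGI there is no net growth.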

Tests used:
Test in all cases: NCI tumour cell line growth inhibition, 48 h
A498 renal = test system: A498 renal
SK-OV-3 ovarian = test system: SK-OV-3 ovarian
DLD-1 colon = test system: DLD-1 colon
UACC-257 melanoma = test system: UACC-257 melanoma
DMS 114 small cell lung = test system: DMS 114 small cell lung
M14 melanoma = test system: M14 melanoma
HOP-92 NSCLC = test system: HOP-92 NSCLC
HL-60(TB) leukemia = test system: HL-60(TB) leukemia
MDA-MB-435 = test system: MDA-MB-435
MCF7 breast = test system: MCF7 breast

Row | Structure (SMILES) | TGI (A498 renal) | TGI (SK-OV-3 ovarian) | TGI (DLD-1 colon) | TGI (UACC-257 melanoma) | TGI (DMS 114 small cell lung) | TGI (M14 melanoma) [µM] | TGI (HOP-92 NSCLC) | TGI (HL-60(TB) leukemia) | GI50 (HOP-92 NSCLC) [µM] | GI50 (SK-OV-3 ovarian) [µM] | GI50 (DLD-1 colon) [µM] | GI50 (UACC-257 melanoma) [µM] | GI50 (HL-60(TB) leukemia) [µM] | GI50 (DMS 114 small cell lung) [µM] | GI50 (M14 melanoma) [µM] | TGI (MDA-MB-435) [µM] | TGI (MCF7 breast) [µM] | GI50 (A498 renal) [µM]
1 | COc1cc(OC)c(C(=O)c2cccs2)cc1N | > 100 µM | > 100 µM | > 100 µM | > 100 µM | > 100 µM | > 100 |  |  |  |  |  |  |  |  |  |  |  | 
2 | CN1CN(C2OC(CO)C(O)C2O)c2nc(N)[nH]c(=O)c21 (centres undefined) | > 100 µM | > 100 µM | > 100 µM | > 100 µM | > 100 µM | > 100 | > 100 µM | > 100 µM |  |  |  |  |  |  |  |  |  | 
3 | CCOC(=O)C(=O)Nc1nc2c(OCC)cccc2s1 | > 100 µM | > 100 µM | > 100 µM | > 100 µM | > 100 µM | > 100 | > 100 µM | > 100 µM |  |  |  |  |  |  |  |  |  | 
4 | O=S(=O)([O-])c1ccc(N=Cc2ccccc2[O-])cc1.O=S(=O)([O-])c1ccc(N=Cc2ccccc2[O-])cc1.[Co+2] |  | > 100 µM | > 100 µM | > 100 µM | > 100 µM | > 100 | > 100 µM | > 100 µM | 52.1 | 36.6 | 51.1 | > 100 | 40.1 | 28.3 | 79.6 |  |  | 
5 | CN(C)CCN1C(=O)c2cccc3cc([N+](=O)[O-])cc(c23)C1=O | 0.386 µM | 0.806 µM | 28.4 µM | 2.13 µM | 0.811 µM | 2.14 | 1.12 µM | > 45.3 µM |  |  |  |  |  |  |  | 4.66 | 0.743 | 
6 | CC(C)C12Cc3c(ccc4ccccc34)OC1(C)Oc1ccc3ccccc3c1C2 (centres undefined) |  | > 100 µM | > 100 µM |  | > 100 µM | > 100 | > 100 µM |  |  |  |  |  |  |  |  |  |  | 
7 | N/N=C1\C(=O)N(Cc2ccccc2)C(=O)C1C(=O)NCc1ccccc1 (centres undefined) | > 100 µM |  | > 100 µM | > 100 µM | > 100 µM | > 100 | > 100 µM | > 100 µM |  |  |  |  |  |  |  |  |  | 
8 | CSCS(=O)C[C@H](CO)NC(=O)/C=C/c1c(C)[nH]c(=O)[nH]c1=O (some centres undefined) | 2 µM and 2.06 µM | 6.11 µM and 6.96 µM | > 23.4 µM and 7.25 µM | 7.79 µM and 4.86 µM | 6.61 µM and 3.1 µM | 2.79 | 4.05 µM and 0.778 µM | 4.96 µM and 3.44 µM | 0.815 |  | 2.23 | 2.22 | 2.23 | 1.7 |  |  | 6.86 | 0.434
9 | Cc1ccc(-c2nc3ccccc3c(=O)n2NCC2(O)OCC(O)C(O)C2O)cc1 (centres undefined) | > 100 µM | > 100 µM |  | > 100 µM | > 100 µM | > 100 |  | > 100 µM |  |  |  |  |  |  |  |  |  | 
10 | COC(OC)c1cc2c(cc1C=O)OCO2 |  | > 100 µM | > 100 µM | > 100 µM | > 100 µM | > 100 | > 100 µM | > 100 µM |  |  |  |  |  |  |  |  |  | 
11 | N.N.N.N.N.NC(=O)[O-].[Co+3].[I-] | > 100 µM | > 100 µM | > 100 µM | > 100 µM |  | > 100 | > 100 µM |  | > 100 | > 100 | > 100 | > 100 |  |  | > 100 |  |  | > 100
12 | Cc1cccc(-n2c(N)c(-c3nc4ccccc4[nH]3)sc2=S)c1 | > 100 µM | 91.7 µM | 80.1 µM | 67.1 µM | 57.3 µM | 48.4 |  | 64 µM |  |  |  |  |  |  |  |  |  | 
13 | CC(CC(=O)N1C(=O)C(C)(C)[C@@H](O)[C@H]1CC(C)C(Cl)(Cl)Cl)C(Cl)(Cl)Cl (some centres undefined) | > 100 µM | > 100 µM | > 100 µM | > 100 µM | > 100 µM | > 100 | > 100 µM | > 100 µM |  |  |  |  |  |  |  |  |  | 
14 | CCC[CH2][Sn]([CH2]CCC)([O]c1cccc2cccnc12)[O]c1cccc2cccnc12 | 3.31 µM | 3.33 µM | 0.553 µM |  | 0.306 µM | 0.369 |  |  |  | 1.91 | 0.232 |  |  | 0.135 | 0.186 |  |  | 1.75
15 | CC(C)N(O)C(=N)c1ccccc1 |  |  | > 100 µM | > 100 µM | > 100 µM | > 100 | > 100 µM | > 100 µM |  |  |  |  |  |  |  |  |  | 
